# Assay results as given in patent US7728043B2, “Methods for treatment of beta-amyloid protein-induced ocular disease” (priority 1999, dated 2010).
# How the values were obtained:
# [1] = test system: cells treated with βA peptide; test: Protection of cells from βA peptide insult, statements in words (MTT assay, cells not singled out); format: cell-based; conditions: MTT reduction assay; PC12, IMR32, HUVEC cells where named in the sentence
# Method: (§1) The degree of βA insult was measured by 3-[4,5-dimethylthiazol-2-yl]-2,5-diphenyltetrazolium bromide (MTT) reduction assay. […] The detection of cell growth or cell death can be determined by observing the conversion of MTT to the colored product, MTT formazan, the concentration of which can be measured […] at 550 nm.
# (§2) Cells were incubated in MTT solution (5 mg/ml) at 37° C. for 2 hours. During this time, cells were observed under a microscope every 15 min. Cells were incubated in Lysing buffer (100 μl) overnight at 37° C. Colorimetric determination of MTT reduction was made at 550 nm.
# [2] = test system: PC12 cells; test: MTT reduction assay, βA peptide-induced toxicity, PC12 cells; format: cell-based, rat; conditions: for Anti-βA peptide(1-42) ED50 PC12 / Anti-βA peptide(25-35) ED50 PC12: Table 4, ginkgo compounds; for Protection of PC12 cells from βA peptide insults (control study): even at 200 μg/ml, βA peptide(25-35) and βA peptide(1-42); for ED50 of βA peptide toxicity to PC12 cells: peptide alone, collagen-coated 96-well plates
# Method: as §1, §2
# (§3) PC12 rat pheochromocytoma and IMR32 human neuroblastoma cells were obtained from the American Type Culture Collection (ATCC). HUVEC normal umbilical human vein endothelial cells were obtained from Clonetics (San Diego, Calif.). Cells were routinely cultured on a tissue culture plate (Corning, N.Y., N.Y.). PC12 cells were grown in high glucose Dulbecco's Modified Eagle Medium (DMEM), 10% horse serum, 5% fetal calf serum, and 1% penicillin/streptomycin. IMR32 cells were grown in 90% DMEM and 10% fetal calf serum with 1% penicillin/streptomycin. HUVEC cells were grown in EGM-2 Bullet Kit (Clonetics, San Diego, Calif.).
# PC12 cells were cultured routinely on polystyrene-coated Corning tissue culture plates. […] The 96-well plates were coated with rat tail collagen (Boehringer Mannheim) in order to promote uniform PC12 cell attachment and growth.
# [3] = test system: IMR32 cells; test: MTT reduction assay, βA peptide-induced toxicity, IMR32 cells; format: cell-based, human; conditions: for Anti-βA peptide(1-42) ED50 IMR32 / Anti-βA peptide(25-35) ED50 IMR32: Table 4, ginkgo compounds; for ED50 of βA peptide toxicity to IMR32 cells: peptide alone
# Method: as §1, §2, §3
# [4] = test system: HUVEC cells; test: MTT reduction assay, βA peptide-induced toxicity, HUVEC cells; format: cell-based, human; conditions: for Anti-βA peptide(1-42) ED50 HUVEC / Anti-βA peptide(25-35) ED50 HUVEC: Table 4, ginkgo compounds
# Method: as §1, §2, §3
Compound,"Protection of cells from βA peptide-induced toxicity, in words [1]",Anti-βA peptide(1-42) ED50 PC12 [2],Anti-βA peptide(25-35) ED50 PC12 [2],Anti-βA peptide(1-42) ED50 IMR32 [3],Anti-βA peptide(25-35) ED50 IMR32 [3],Anti-βA peptide(1-42) ED50 HUVEC [4],Anti-βA peptide(25-35) ED50 HUVEC [4],Protection of PC12 cells from βA peptide insults (control study) [2],other results
"CCCCCCCCC=CC(=O)CCc1ccc(O)cc1 [Compound 50, [9]-demethoxyshogaol]",effectively protected,,,,,,,,
"C[C@@H]1C(=O)O[C@H]2C[C@@]34[C@H]5C[C@@H](C(C)(C)C)[C@]36[C@@H](OC(=O)[C@@H]6O)O[C@@]4(C(=O)O5)[C@]21O [Ginkgolide A, reference compound]",do not possess biological activity,toxic,toxic,toxic,toxic,toxic,toxic,,
"CC1C(=O)OC2C(O)C34C5CC(C(C)(C)C)C36C(OC(=O)C6O)OC4(C(=O)O5)C12O (centres unmarked) [Ginkgolide B, reference compound]",do not possess biological activity,toxic,toxic,toxic,toxic,toxic,toxic,,
"O=c1c(O)c(-c2ccc(O)c(O)c2)oc2cc(O)cc(O)c12 [Quercetin, reference compound]",do not possess biological activity,>20 mg/L,>20 mg/L,>20 mg/L,>20 mg/L,>20 mg/L,>20 mg/L,,
"CC1=C(/C=C/C(C)=C/C=C/C(C)=C/CO)C(C)(C)CCC1 [vitamin A, reference compound]",,,,,,,,did not protect,
"O=C1O[C@H]([C@@H](O)CO)C(O)=C1O [vitamin C, reference compound]",,,,,,,,did not protect,
"Cc1c(C)c2c(c(C)c1O)CCC(C)(CCCC(C)CCCC(C)CCCC(C)C)O2 (centres unmarked) [vitamin E, reference compound]",,,,,,,,did not protect,
"CC1=C(/C=C/C(C)=C/C=C/C(C)=C/C=C/C=C(C)/C=C/C=C(C)/C=C/C2=C(C)CCCC2(C)C)C(C)(C)CCC1 [β-carotene, reference compound]",,,,,,,,did not protect,
Ginkgolide C [reference compound],do not possess biological activity,toxic,toxic,toxic,toxic,toxic,toxic,,
βA peptide (1-42): beta-amyloid peptide 1-42 used as the toxic insult [reference compound],,,,,,,,,ED50 of βA peptide toxicity to PC12 cells [2]: 5.0 mg/L; ED50 of βA peptide toxicity to IMR32 cells [3]: 6.0 mg/L
"βA peptide (25-35): beta-amyloid peptide fragment 25-35 used as the toxic insult (GSNKGAIIGLM; Amyloid-beta protein 42; UniProt P05067 696-706, looked up, fragment) [reference compound]",,,,,,,,,ED50 of βA peptide toxicity to PC12 cells [2]: 1.0 mg/L; ED50 of βA peptide toxicity to IMR32 cells [3]: 3.0 mg/L; ED50 of βA peptide toxicity to HUVEC cells ([4]; peptide alone): 6.0 mg/L
